In EP1452605A1, “Method for determining antiviral activity” (Universiteit Utrecht Holding B.V., priority 2003, dated 2004):
Values belong to the compound of their own block, whether it stands above or below them.

Key:
HIV-1Ba-L [1] = assay: Combination of HIV-1 inhibitors in HIV-1Ba-L infected PBMC (checker board, CalcuSyn)
COX-2 = target: T1, COX-2 (Homo sapiens, UniProt P35354); details: cited from earlier work
T1 sequence (P35354 18-604): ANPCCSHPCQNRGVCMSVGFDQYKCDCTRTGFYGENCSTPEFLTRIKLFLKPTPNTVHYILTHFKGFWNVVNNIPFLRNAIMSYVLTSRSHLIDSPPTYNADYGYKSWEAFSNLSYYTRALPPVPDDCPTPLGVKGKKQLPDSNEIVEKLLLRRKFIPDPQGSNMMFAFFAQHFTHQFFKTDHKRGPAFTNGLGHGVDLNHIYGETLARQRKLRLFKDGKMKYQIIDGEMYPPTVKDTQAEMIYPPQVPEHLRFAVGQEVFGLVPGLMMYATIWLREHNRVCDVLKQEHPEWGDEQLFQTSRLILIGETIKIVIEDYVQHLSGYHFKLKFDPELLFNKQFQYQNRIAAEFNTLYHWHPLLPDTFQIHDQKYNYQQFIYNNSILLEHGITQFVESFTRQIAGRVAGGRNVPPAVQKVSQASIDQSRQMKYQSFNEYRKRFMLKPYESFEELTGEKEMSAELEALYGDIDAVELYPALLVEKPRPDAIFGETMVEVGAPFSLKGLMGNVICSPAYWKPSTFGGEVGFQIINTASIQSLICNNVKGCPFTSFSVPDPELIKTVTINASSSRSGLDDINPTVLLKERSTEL

HIV-1Ba-L [2] = assay: HIV-1 infection of PBMC, p24-core antigen ELISA; type: cell-based; details: for antiviral activity compared to APHS / antiviral activity compared to compound 18: PBMC, HIV-1Ba-L
Experimental: To correct for the input virus, an extra control consisting of medium containing the same amount of input virus as added to the cells was included in the experiment. The amount of p24 in this control was subsequently subtracted from the p24 values of the samples in order to obtain the exact amount of p24 produced by the cells. p24-core antigen quantification by ELISA After 2 or 7 days incubation, samples of the supernatants were collected, inactivated by addition of Empigen (Calbiochem, La Jolla, CA, USA) and by heat inactivation at 56°C for 30 min. p24-core antigen concentration was determined by an enzyme linked immunoabsorbent assay (ELISA) (AMPAK™, DAKO, Cambridgeshire, UK) as described previously ^18,19. The optical density values were converted into p24 concentration (ng/ml) with the use of a calibration curve made by serial dilutions of recombinant p24 protein (NIBSC, UK) that was submitted to the same treatment as the samples.
(§1) To correct for the input virus, an extra control consisting of medium containing the same amount of input virus as added to the cells was included in the experiment. The amount of p24 in this control was subsequently subtracted from the p24 values of the samples in order to obtain the exact amount of p24 produced by the cells.
(§2) After 7 days incubation, samples of the supernatants were collected, inactivated by addition of Empigen (Calbiochem, La Jolla, CA, USA) and by heat inactivation at 56°C for 30 min. p24-core antigen concentration was determined by an ELISA (AMPAK™, DAKO, Cambridgeshire, UK) as described previously ^39,40. The optical density values were converted into p24 concentration (ng/ml) with the use of a calibration curve made by serial dilutions of recombinant p24 protein (NIBSC, UK) that was submitted to the same treatment as the samples.
as §1
as §2, with “enzyme linked immunoabsorbent assay (ELISA)” for “ELISA”, “15,16.” for “^39,40.”

PBMC = assay: Cellular viability assay (MTT) of PBMC; details: PBMC
in vitro = details: human, pbmc
[3] = Human immunodeficiency virus 1, PBMC, 168 h, read-out: IC50 Drug, drug alone, head over this column prints Combination
[4] = read-out: IC50 Combination Drug, drug in combination with APHS at the equipotent ratio (1 : 1)
[5] = Human immunodeficiency virus 1, 168 h, PBMC infected with HIV-1Ba-L, p24 antigen after 7 days, read-out: IC50
[6] = PBMC infected with HIV-1Ba-L, p24 antigen after 7 days, read-out: IC50
[7] = Human immunodeficiency virus 1, PBMC, 168 h

IC50 (HIV-1Ba-L [1]; [3]): 0.01 µM
IC50 (HIV-1Ba-L [1]; [4]): 0.003 µM
SMILES: Nc1ccn([C@@H]2CS[C@H](CO)O2)c(=O)n1 [3TC, lamivudine]

SMILES: CCCCC#CCS(=O)(=O)c1ccccc1OC(C)=O [APHS-d1]
COX-2 activity, potency and selectivity compared with APHS (COX-2): without anti-COX-2 activity

SMILES: CCCCCCCSc1ccccc1OC(C)=O [APHS-d2]
COX-2 activity, potency and selectivity compared with APHS (COX-2): as potent as APHS but less selective against COX-2 than APHS

SMILES: CCCCC#CCSc1ccccc1O [APHS-d3]
COX-2 activity, potency and selectivity compared with APHS (COX-2): without COX-2 activity

SMILES: CSc1ccccc1OC(C)=O [APHS-d4]
COX-2 activity, potency and selectivity compared with APHS (COX-2): more selective than APHS
times less potent than APHS against COX-2 (COX-2): 100

IC50 (HIV-1Ba-L [1]; [3]): 0.001 µM
IC50 (HIV-1Ba-L [1]; [4]): 0.0002 µM
SMILES: O=C1Nc2ccc(Cl)cc2[C@@](C#CC2CC2)(C(F)(F)F)O1 [EFV, efavirenz]

IC50 (HIV-1Ba-L [1]; [3]): 0.011 µM
IC50 (HIV-1Ba-L [1]; [4]): 0.005 µM
SMILES: CC(C)(C)NC(=O)[C@@H]1CN(Cc2cccnc2)CCN1C[C@@H](O)C[C@@H](Cc1ccccc1)C(=O)N[C@H]1c2ccccc2C[C@H]1O [IDV, indinavir]

IC50 (HIV-1Ba-L [1]; [3]): 0.006 µM
IC50 (HIV-1Ba-L [1]; [4]): 0.003 µM
SMILES: CC(C)c1nc(CN(C)C(=O)N[C@H](C(=O)N[C@@H](Cc2ccccc2)C[C@H](O)[C@H](Cc2ccccc2)NC(=O)OCc2cncs2)C(C)C)cs1 [RTV, ritonavir]

SMILES: CC(=O)Oc1ccccc1C(=O)O [aspirin, reference compound]
times less potent than APHS against COX-2 (COX-2): 60
times less selective than APHS for COX-2 (COX-2): 100

SMILES: CCCCC#CCSc1ccccc1OCC [compound 1, Benzene, 1-ethoxy-2-(2-heptynylthio)-]
antiviral activity compared to APHS (HIV-1Ba-L [2]): decreased
cytotoxicity compared to APHS (PBMC): decreased

SMILES: CCCCOCCSc1ccccc1OC(=O)C(F)(F)F [compound 7, Acetic acid, trifluoro-, 2-(2-butoxyethylthio)phenylester]
antiviral activity compared to APHS (HIV-1Ba-L [2]): decreased
cytotoxicity compared to APHS (PBMC): decreased

SMILES: CCCCCCCCSc1ccccc1O [compound 8]
antiviral activity compared to APHS (HIV-1Ba-L [2]): less antiviral activity than APHS
cytotoxicity compared to APHS (PBMC): increase

IC50 (HIV-1Ba-L [2]; [5]): 20 µM
SMILES: CCCCCCCCSc1ccccc1OC(C)=O [compound 9]
CC50 at 168 h (in vitro): 135 µM

SMILES: CCCCCCCSc1ccccc1O [compound 10]
antiviral activity compared to APHS (HIV-1Ba-L [2]): less antiviral activity than APHS
cytotoxicity compared to APHS (PBMC): increase

IC50 (HIV-1Ba-L [2]; [5]): 10 µM
SMILES: CCCCCCCSc1ccccc1OC(C)=O [compound 11]
CC50 at 168 h (in vitro): 48 µM

SMILES: CCCCCCCSc1ccccc1OC(=O)C(F)(F)F [compound 12, Acetic acid, trifluoro-, 2-(heptylthio) phenylester]
antiviral activity compared to APHS (HIV-1Ba-L [2]): decreased
cytotoxicity compared to APHS (PBMC): decreased

SMILES: CCCCCCCSc1ccccc1OC(=O)CCCC [compound 13, Phenol, 2-(heptylthio)-, valerate]
antiviral activity compared to APHS (HIV-1Ba-L [2]): decreased
cytotoxicity compared to APHS (PBMC): decreased

SMILES: CCCCCCCSc1ccccc1OC(=O)c1ccccc1 [compound 14, Phenol, 2-(heptylthio)-, benzoate]
antiviral activity compared to APHS (HIV-1Ba-L [2]): decreased
cytotoxicity compared to APHS (PBMC): increased

IC50 (HIV-1Ba-L [2]; [6]): 3 µM
SMILES: CCCCCCCSc1ccc(O)cc1 [compound 15]
antiviral activity compared to APHS (HIV-1Ba-L [2]): increased
cytotoxicity compared to APHS (PBMC): increased
fold increase in cytotoxicity compared to APHS (PBMC): about 10

IC50 (HIV-1Ba-L [2]; [5]): 2 µM
SMILES: CCCCCCCSc1ccc(OC(C)=O)cc1 [compound 16, Phenol, 4-(heptylthio)-, acetate]
antiviral activity compared to APHS (HIV-1Ba-L [2]): increase
cytotoxicity compared to APHS (PBMC): increase
fold increase in cytotoxicity compared to APHS (PBMC): about 10

IC50 (HIV-1Ba-L [2]; [7]): 4 µM
SMILES: CCCCCCSc1ccccc1O [compound 17]
antiviral activity compared to APHS (HIV-1Ba-L [2]): improvement
cytotoxicity compared to APHS (PBMC): increase

IC50 (HIV-1Ba-L [2]; [6]): 3 µM
SMILES: CCCCCCSc1ccccc1OC(C)=O [compound 18]
CC50 (PBMC; read-out: TC50, 7 days, MTT): 119 µM

SMILES: CCCCCSc1ccccc1O [compound 19]
IC50 (HIV-1Ba-L [2]; [7]): 0.9 µM
antiviral activity compared to APHS (HIV-1Ba-L [2]): improved

SMILES: CCCCCSc1ccccc1OC(C)=O [compound 20]
antiviral activity compared to compound 18 (HIV-1Ba-L [2]): worse

IC50 (HIV-1Ba-L [2]; [7]): 3 µM
SMILES: CCCCSc1ccccc1O [compound 21]
antiviral activity compared to APHS (HIV-1Ba-L [2]): improved

SMILES: CCCCSc1ccccc1OC(C)=O [compound 22]
antiviral activity compared to compound 18 (HIV-1Ba-L [2]): worse

IC50 (HIV-1Ba-L [2]; [7]): 5 µM
SMILES: CCCSc1ccccc1O [compound 23]
antiviral activity compared to APHS (HIV-1Ba-L [2]): improved

SMILES: CCCSc1ccccc1OC(C)=O [compound 24]
antiviral activity compared to compound 18 (HIV-1Ba-L [2]): worse

IC50 (HIV-1Ba-L [2]; [7]): 4 µM
SMILES: CCSc1ccccc1O [compound 25]
antiviral activity compared to APHS (HIV-1Ba-L [2]): improved

SMILES: CCSc1ccccc1OC(C)=O [compound 26]
antiviral activity compared to compound 18 (HIV-1Ba-L [2]): worse
